Measurements as given in patent US20260083865A1, “PROSTATE SPECIFIC MEMBRANE ANTIGEN (PSMA) LIGANDS AND USE THEREOF” (priority 2022, published 2026).
Where two headings read alike, the source gives them in different places. Numbered stars: 1 amine (or outer) side, 2 acyl side, 3 side chain; on linkers, the order of the positions; unused ones are H or OH. Bridge positions count the residues as written; N and C are the ends. Square brackets hold non-standard residues; d marks the D form. Peptide text beside a SMILES is read from it. * marks the point of attachment. Acetyl(1-DOTA-4-piperidyl) = O=C(O)CN1CCN(CC(=O)O)CCN(CC(=O)N2CCC(CC(=O)*)CC2)CCN(CC(=O)O)CC1; DOTA = O=C(O)CN1CCN(CC(=O)O)CCN(CC(=O)*)CCN(CC(=O)O)CC1; Phe(4-Cl) = N[C@@H](Cc1ccc(Cl)cc1)C(=O)O; X1 = O=C(CC1CCN([*:1])CC1)[*:2]; Cit = NC(=O)NCCC[C@H](N)C(=O)O; Tle = CC(C)(C)[C@H](N)C(=O)O; Hexanoyl = CCCCCC(=O)*; Aib = CC(C)(N)C(=O)O; CO = O=C([*:1])[*:2]; NHBu = CCCCN*

Experiments:
[1] = molecular target: T1, PSMA-expressing C4-2 cells (Homo sapiens, UniProt Q04609); experiment: FACS binding assay (competition with 50 nM PSM-0183); conditions: C4-2 cells, read-out: pIC50 [C4-2] CAT (converted)
T1 construct: PSMA-expressing C4-2 cells (ATCC, Cat. No. CRL-3314) were cultured in RPMI-1640; host or cells: C4-2 cells
Method in brief: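 C4-2 cells were incubated 1 h at 4 °C with 50 nM AF488-labelled peptide PSM-0183 plus increasing test compound concentrations, then washed twice in ice-cold buffer. Median fluorescence in the AF488 channel was read by flow cytometry. IC50/pIC50 was derived by 4PL fitting of MFI versus concentration.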

[2] = molecular target: T2, Fc-fusion protein of human PSMA (hPSMA-Fc) (Homo sapiens, UniProt Q04609); experiment: Surface plasmon resonance assay (Biacore T200, single cycle kinetic); assay type: binding; conditions: read-out: pKD CAT (converted)
T2 construct: purchased Acro Biosystems PSA-H5264
Method in brief: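 hPSMA-Fc was captured (~1000 RU) on an Fc-binding-peptide CM5 chip, and compounds were run in single cycle kinetic mode at 25° C in HBST with 0.1% DMSO. Double-blank-corrected sensorgrams were fitted to a 1:1 Langmuir model to give KD, reported as pKD.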

PC3-PIP tumor model = test system: PC3-PIP tumor model; set-up: species or system mice; conditions: mouse, in vivo
Description: Radioactively labeled compounds can be detected by imaging methods such as SPECT and PET. Furthermore, the data acquired by such techniques can be confirmed by direct measurement of radioactivity contained in the individual organs prepared from an animal injected with a radioactively labeled compound of the disclosure. Thus, the biodistribution (the measurement of radioactivity in individual organs) of a radioactively labeled compound can be determined and analyzed. […] All animal experiments were conducted in compliance with the German animal protection laws. Male swiss or NMRI nude mice (6-8 weeks old, Janvier Labs, France) were inoculated with 5×10^6 PC3-PIP cells in the right shoulder. For selected compounds an additional model was used, here male NMRI nude mice (6-8 weeks old, Janvier Labs, France) were inoculated with 5×10^6 or/1×10^7 C4-2 cells in the right shoulder. When tumors reached an appropriate size, the mice received ˜30 MBq ^111In-labeled compounds of the disclosure (diluted to 100 μL with PBS) administered intravenously via the tail vein. Images were obtained on a NanoSPECT/computed tomography system (Mediso Medical Imaging Systems, Budapest, Hungary) using exemplarily the following acquisition and reconstruction parameters (Table 10). [table] Imaging data were saved as DICOM files and analysed using VivoQuant™ software (Invicro, Boston, USA). In brief, regions of interest (ROIs) were drawn based on computed tomography images for the relevant organs and tissue regions such as heart (estimate of blood pool, bps), kidney, and tumor. The resulting numeric data expressed as a percentage of injected dose per gram of tissue (% ID/g) are presented in FIGS. 3(a)-3(ii) for the PC3-PIP model and FIGS. 4(a)-4(r) for the C4-2 model. Bars show mean % ID/g values of two to three animals per time point. Error bars indicate the value range (minimum and maximum values).

[3] = pKD category for PSMA SPR activity assay, hPSMA-Fc, 25° C.

T1 sequence (Q04609 whole entry): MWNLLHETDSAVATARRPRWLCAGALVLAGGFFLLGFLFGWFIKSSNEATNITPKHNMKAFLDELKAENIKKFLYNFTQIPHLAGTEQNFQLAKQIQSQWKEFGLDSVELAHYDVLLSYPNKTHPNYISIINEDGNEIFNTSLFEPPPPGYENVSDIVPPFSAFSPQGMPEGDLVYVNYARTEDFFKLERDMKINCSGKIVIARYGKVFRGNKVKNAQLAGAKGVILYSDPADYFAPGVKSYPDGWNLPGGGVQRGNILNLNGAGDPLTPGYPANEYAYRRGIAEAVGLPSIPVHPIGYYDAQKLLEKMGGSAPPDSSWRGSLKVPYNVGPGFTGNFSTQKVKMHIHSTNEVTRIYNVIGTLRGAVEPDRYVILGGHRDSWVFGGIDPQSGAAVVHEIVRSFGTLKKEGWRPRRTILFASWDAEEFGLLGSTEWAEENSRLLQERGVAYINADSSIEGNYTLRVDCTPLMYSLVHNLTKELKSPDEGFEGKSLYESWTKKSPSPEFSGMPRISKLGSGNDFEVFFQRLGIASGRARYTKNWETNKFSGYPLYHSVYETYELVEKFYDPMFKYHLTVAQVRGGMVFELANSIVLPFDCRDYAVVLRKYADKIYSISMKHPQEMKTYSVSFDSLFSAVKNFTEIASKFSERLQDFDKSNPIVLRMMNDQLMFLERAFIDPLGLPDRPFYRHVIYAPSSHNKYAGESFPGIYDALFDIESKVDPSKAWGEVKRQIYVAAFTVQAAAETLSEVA
T2 sequence (Q04609 44-750 limits assumed): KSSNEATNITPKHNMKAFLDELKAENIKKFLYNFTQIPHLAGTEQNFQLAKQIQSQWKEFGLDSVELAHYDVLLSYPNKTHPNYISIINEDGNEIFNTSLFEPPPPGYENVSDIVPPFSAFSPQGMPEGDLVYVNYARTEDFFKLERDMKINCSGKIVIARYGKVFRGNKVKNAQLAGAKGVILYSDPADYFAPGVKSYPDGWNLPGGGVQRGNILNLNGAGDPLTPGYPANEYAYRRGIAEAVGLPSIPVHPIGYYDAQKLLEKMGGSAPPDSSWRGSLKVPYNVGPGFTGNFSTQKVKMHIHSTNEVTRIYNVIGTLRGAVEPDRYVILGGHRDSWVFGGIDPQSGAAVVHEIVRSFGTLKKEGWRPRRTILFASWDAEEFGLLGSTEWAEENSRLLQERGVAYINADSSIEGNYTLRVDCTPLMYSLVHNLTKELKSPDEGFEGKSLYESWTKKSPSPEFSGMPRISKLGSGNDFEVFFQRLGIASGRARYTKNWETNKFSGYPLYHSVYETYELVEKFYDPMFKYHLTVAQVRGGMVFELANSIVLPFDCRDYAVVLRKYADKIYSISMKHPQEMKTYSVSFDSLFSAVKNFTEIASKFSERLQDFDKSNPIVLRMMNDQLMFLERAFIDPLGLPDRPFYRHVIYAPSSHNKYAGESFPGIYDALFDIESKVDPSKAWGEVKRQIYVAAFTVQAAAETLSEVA

Structure (SMILES) | IC50 ([1]; FACS binding, category) [µM] | Kd ([2]; PSMA SPR assay, category) [µM] | AUC ratio [T/K] (PC3-PIP tumor model) | Tumor AUC (PC3-PIP tumor model) [% ID/g*h] | IC50 ([1]; pIC50 category of FACS binding) [µM] | Kd [2, 3] [µM] | IC50 ([1]; FACS binding, competition with 50 nM PSM-0183, category) [µM] | Kd ([2]; SPR, hPSMA-Fc, single cycle kinetic, 25° C., category) [µM]
C[C@@H](O)[C@H](NC(=O)[C@@H](NC(=O)[C@@H]1CSSC[C@H](NC(=O)[C@H](Cc2ccc(Cl)cc2)NC(=O)C(C)(C)NC(=O)[C@@H](NC(=O)CN2CCN(CC(=O)O)CCN(CC(=O)O)CCN(CC(=O)O)CC2)[C@@H](C)O)C(=O)N[C@@H](CCCCN)C(=O)N[C@@H](CCCNC(=N)N)C(=O)NC(C)(C)C(=O)N[C@@H](CC(N)=O)C(=O)N1)C(C)(C)C)C(N)=O [PSM-0573, DOTA-Thr-Aib-Pcf-[Cys-Lys-Arg-Aib-Asn-Cys]-Tle-Thr-NH2] ({DOTA}-T[Aib][Phe(4-Cl)]CKR[Aib]NC[Tle]T-NH2; disulfide 4-9) | < 0.2 | < 0.0126 | 1.1 | 160 |  |  |  | 
C[C@@H](O)[C@H](NC(=O)[C@@H](NC(=O)[C@@H]1CSSC[C@H](NC(=O)[C@H](Cc2ccccc2)NC(=O)C(C)(C)NC(=O)[C@@H](NC(=O)CC2CCN(C(=O)CN3CCN(CC(=O)O)CCN(CC(=O)O)CCN(CC(=O)O)CC3)CC2)[C@@H](C)O)C(=O)N[C@@H](CCCCN)C(=O)N[C@@H](CCCNC(=N)N)C(=O)NC(C)(C)C(=O)N[C@@H](CC(N)=O)C(=O)N1)C(C)(C)C)C(N)=O [PSM-0492, DOTA-Cmp-Thr-Aib-Phe-[Cys-Lys-Arg-Aib-Asn-Cys]-Tle-Thr-NH2] ({DOTA}-[X1]T[Aib]FCKR[Aib]NC[Tle]T-NH2; disulfide 5-10) |  |  | 2.1 | 180 | < 0.2 | < 0.0126 |  | 
CCCCCC(=O)N[C@H](C(=O)NC(C)(C)C(=O)N[C@@H](Cc1ccc(Cl)cc1)C(=O)N[C@H]1CSSC[C@@H](C(=O)N[C@H](C(=O)N[C@H](C(=O)N[C@H](CCCCNC(=O)CC2CCN(C(=O)CN3CCN(CC(=O)O)CCN(CC(=O)O)CCN(CC(=O)O)CC3)CC2)C(N)=O)[C@@H](C)O)C(C)(C)C)NC(=O)[C@H](CC(N)=O)NC(=O)C(C)(C)NC(=O)[C@H](CCCNC(N)=O)NC(=O)[C@H](CCCCN)NC1=O)[C@@H](C)O [PSM-0239, Hex-Thr-Aib-Pcf-[Cys-Lys-Cit-Aib-Asn-Cys]-Tle-Thr-lys(DOTA-Cmp)-NH2] (Hexanoyl-T[Aib][Phe(4-Cl)]CK[Cit][Aib]NC[Tle]T[dK](Acetyl(1-DOTA-4-piperidyl))-NH2; disulfide 4-9) |  |  | 1.2 | 210 |  |  | < 0.2 | < 0.0126

Further lines, results first:

IC50 ([1]; FACS binding, category) [µM] | Kd ([2]; PSMA SPR assay, category) [µM] | AUC ratio [T/K] (PC3-PIP tumor model) | Tumor AUC (PC3-PIP tumor model) [% ID/g*h] | IC50 ([1]; pIC50 category of FACS binding) [µM] | Kd [2, 3] [µM] | IC50 ([1]; FACS binding, competition with 50 nM PSM-0183, category) [µM] | Kd ([2]; SPR, hPSMA-Fc, single cycle kinetic, 25° C., category) [µM] | Structure (SMILES)
 |  | 0.62 | 120 | < 0.2 | < 0.0126 |  |  | CCCCNC(=O)N[C@H](C(=O)NC(C)(C)C(=O)N[C@@H](Cc1ccc(Cl)cc1)C(=O)N[C@H]1CSSC[C@@H](C(=O)N[C@H](C(=O)N[C@H](C(=O)N2CCC(CC(=O)N[C@H](CCCCNC(=O)CN3CCN(CC(=O)O)CCN(CC(=O)O)CCN(CC(=O)O)CC3)C(N)=O)CC2)[C@@H](C)O)C(C)(C)C)NC(=O)[C@H](CC(N)=O)NC(=O)C(C)(C)NC(=O)[C@H](CCCNC(=N)N)NC(=O)[C@H](CCCCN)NC1=O)[C@@H](C)O [PSM-0371, nBuCAyl-Thr-Aib-Pcf-[Cys-Lys-Arg-Aib-Asn-Cys]-Tle-Thr-Cmp-lys(DOTA)-NH2] ({NHBu-CO}-T[Aib][Phe(4-Cl)]CKR[Aib]NC[Tle]T[X1][dK](DOTA)-NH2; disulfide 4-9)
< 0.2 | < 0.0126 | 1.6 | 110 |  |  |  |  | C[C@@H](O)[C@H](NC(=O)[C@@H](NC(=O)[C@@H]1CSSC[C@H](NC(=O)[C@H](Cc2ccccc2)NC(=O)C(C)(C)NC(=O)[C@@H](NC(=O)CN2CCN(CC(=O)O)CCN(CC(=O)O)CCN(CC(=O)O)CC2)[C@@H](C)O)C(=O)N[C@@H](CCCCN)C(=O)N[C@@H](CCCNC(=N)N)C(=O)NC(C)(C)C(=O)N[C@@H](CC(N)=O)C(=O)N1)C(C)(C)C)C(N)=O [PSM-0580, DOTA-Thr-Aib-Phe-[Cys-Lys-Arg-Aib-Asn-Cys]-Tle-Thr-NH2] ({DOTA}-T[Aib]FCKR[Aib]NC[Tle]T-NH2; disulfide 4-9)
